Source: patent US9820990B2, “Methods of treating disorders associated with protein aggregation” (University of Pittsburgh—Of the Commonwealth System of …, priority 2009, dated 2017)
“Also recorded” adds a separate entry of the source. Where a name gives a salt, the structure may show the parent alone. Read-outs that look alike come from different tables or passages of the source.

What was measured:
Type in all cases: in vivo, C. elegans
sGFP::ATZ [1] = assay: LOPAC library high-content primary screen for sGFP::ATZ accumulation in transgenic animals; conditions: for Rank-score: 24 h
sGFP::ATZ [2] = assay: Hit compound characterization: dose-response in the sGFP::ATZ HCS assay; set-up: key to dose-dependent response: c: Compound demonstrated a dose-dependent response.; Compound failed to demonstrate a dose-dependent response; conditions: for dose-dependent response: retest at 0-100 μM, 24 or 48 hours; for concentration at which an anti-protein aggregate effect was achieved: C. elegans assay; for degradation of aggregated ATZ protein: Caenorhabditis elegans model system; for effect on sGFP::ATZ accumulation: dose-response, 0-100 μM
Experimental: Imaging of animals using the ArrayScan VTI: Prior to imaging, worms were anesthetized by adding 30 μl of 0.02 M NaN3 in PBS to each well. Plates were resealed, inverted twice, and incubated for 5 minutes at room temperature. Images were acquired with the ArrayScan VTI HCS Reader fitted with a 2.5× objective and a 0.63× coupler using a 2-channel (TRITC and GFP) assay. Real-time analysis was performed using the SpotDetector BioApplication optimized to quantify fluorescent protein expression in C. elegans. Image acquisition and analysis of a 384-well plate was completed in <45 minutes. The total number of animals in the well was determined by counting the number of red heads (Pmyo-2mRFP) in the TRITC channel. Total spot area or total spot intensity was determined by quantifying the GFP-positive spots in the GFP channel. Total spot area or total spot intensity per animal was determined by dividing the values from the GFP channel by that from the TRITC channel.
Hit compound characterization: Compounds that were identified as potential hits were purchased (if available) and retested for verification. […] Compounds that produced a response in a dose-dependent manner were further tested for a time-dependent response. Compound dose-response curves were performed by dispensing 15 μl of a 4× stock solution into 384-well plates containing 15 μl of assay medium (see above). Thirty-five animals were sorted into each well bringing the volume to ˜60 μl. The final compound concentrations in each well varied from 0-100 μM. Assay plates were incubated in a 22° C. incubator for 24 or 48 hours. Each compound was tested in quadruplicate in at least 2 independent experiments.
Statistical evaluation: Statistical evaluation of data was performed using Prism® (Graphpad Software). The significance of actual and predicted data in FIGS. 12, 14 and 15 was determined using a linear regression analysis and comparing the slope and goodness-of-fit (r2) values. Statistical significance of the spot count, spot area and spot intensity values between N2 (wild-type) and various transgenic lines in FIG. 13 and dose-response in FIG. 17 was determined using an unpaired, one-tailed, Student's t-test.
Compound screen: To test the HCS protocol, a pilot drug screen was performed using the library of pharmacologically active compounds (LOPAC1280™ 1280 compounds). Tight gating parameters for total fluorescence were used to sort 35 young adult Pnhx2sGFP::ATZ animals into wells of 384-well plates containing […] of a LOPAC compound and 0.5% DMSO. Pnhx2sGFP::ATZ animals incubated with 0.5% DMSO served as untreated controls and were placed in the first-two and last-two columns of each plate. In a representative experiment, plate 1 of the LOPAC library was set-up for screening on day 1, and 3 other plates were set-up on the next day. After 24 incubation at 25° C., animals were immobilized by the addition of NaAz and placed in the ArrayScan VTI for automated imaging. To examine for systematic errors, the raw data (total spot area/animal) were depicted as a plate-well scatter plot (FIG. 17A). […] This difference reflects a wider sort-window used to collect animals on day 1 in comparison to that used on day 2. As the average values of the negative controls and that of the sample wells were similar, we combined the control and samples wells for normalization and to identify potential hits using the z-score (FIG. 17B). The ArrayScan VTI reads microtiter plates by rows, alternating from left-to-right, and then right-to-left. For some assays, we noted that the control fluorescence values would drift upwards slightly in rows towards the bottom of the plate. This drift appeared to correlate with an increase in chamber temperature during the scanning period and was minimized by cooling the chamber with a fan or shortening the read times by using 2.5× objective with a 0.6 coupler. Nonetheless, intra-plate variation was controlled for by presenting the data as a B-score (FIG. 17C). […]

mCherry::LGG-1 = assay: Induction of autophagy in transgenic animals expressing Pnhx-2mCherry::lgg-1; conditions: compared with well-fed animals treated with DMSO (diffuse)
Source text: FIG. 18A-E. Induction of autophagy by hit compounds. Images of transgenic animals expressing Pnhx-2mCherry:lgg-1 treated with various compounds are shown. Images were acquired using a Nikon instruments TiEclipse widefield light microscope fitted with a 20× Plan Apochromat objective. Images were then deconvolved using Volocity (Perkin Elmer, v 5.3.2). Deconvolved z planes were then merged to a single plane. Well-fed animals treated with DMSO (A) show a diffuse mCherry expression throughout the intestine. […] Starved (E) animals are included as a positive control for autophagy. Scale bar, 50 μm.
Macroautophagy is a cellular process in which a double membrane envelops cytosolic components or organelles (autophagosome) and delivers this material to a lysosome (autophagolysosome) for degradation and recycling (reviewed in 79). LGG-1/LC3/Atg8 is a diffuse cytosolic protein that participates in autophagosome formation and becomes inserted into the autophagosome membrane (80). Upon autophagosome formation, LGG-1 fused to mCherry changes its cytoplasmic distribution pattern from diffuse (lower fluorescence intensity) to punctate (higher fluorescence intensity) (80). To determine whether the imaging system could follow this process, a strain expressing a Pnhx-2mCherry::lgg-1 transgene was examined after starvation, a potent inducer of intestinal autophagosome formation (81). In well-fed animals, the diffuse cytoplasmic fluorescence in the intestinal cells was well above that of the N2 background (FIGS. 13K-13L, 13O-13Q). To detect mCherry::LGG-1 puncta, the diffuse fluorescence intensity of the well-fed animals was used to calibrate a threshold from which the SpotDetector BioApplication could detect any high-intensity spots. Although basal autophagy in the well-fed animals yielded a few spots (FIG. 13O), the large number of distinct puncta in the starved animals (FIGS. 13M, 13N, 13O-Q) indicated a marked increase in autophagy that was detected best by a statistically significant increase in spot count or total spot intensity per animal (FIGS. 13O and 13Q, respectively). […]

[3] = among compounds that increased ATZ accumulation, based on relative rank-scores
[4] = average of compound rankings by ascending B-score from two independent screens, 50 μM, <110 decreased, >1225 increased sGFP::ATZ inclusions
[5] = among compounds that decreased ATZ accumulation, based on relative rank-scores

CC(=O)c1c(O)c(C)c(O)c(Cc2c(O)c3c(c(C(=O)/C=C/c4ccccc4)c2O)OC(C)(C)C=C3)c1O [rottlerin]
Overall rank-order (sGFP::ATZ [1]; [3]): 15
Rank-score (sGFP::ATZ [1]; [4]): 1229.5
dose-dependent response (sGFP::ATZ [2]): rottlerin^c

CC12C(=O)OC(=O)C1(C)C1CCC2O1 (stereo not drawn) [cantharidin, 2,6-Dimethyl-4,10-dioxatricyclo-[5.2.1.02,6]decane-3,5-dione]
Overall rank-order (sGFP::ATZ [1]; [5]): 2
Rank-score (sGFP::ATZ [1]; [4]): 2.5
concentration at which an anti-protein aggregate effect was achieved (sGFP::ATZ [2]): 100 µM
degradation of aggregated ATZ protein (sGFP::ATZ [2]): able to promote degradation of aggregated ATZ protein
effect on sGFP::ATZ accumulation (sGFP::ATZ [2]): dose-dependant decrease in sGFP::ATZ accumulation; also recorded: decreased
effect on sGFP::ATZ accumulation (sGFP::ATZ [2]; listed as Cantharidin): dose-dependent decrease in sGFP::ATZ accumulation
dose-dependent response (sGFP::ATZ [2]): cantharidin^c
mCherry::LGG-1 distribution pattern (autophagic activity) (mCherry::LGG-1): markedly punctate distribution pattern indicative of increased autophagic activity

CO[C@@]1(NC(=O)CSCC#N)C(=O)N2C(C(=O)O)=C(CSc3nnnn3C)CS[C@@H]21 [cefmetazole sodium]
Overall rank-order (sGFP::ATZ [1]; [5]): 9
Rank-score (sGFP::ATZ [1]; [4]): 51.0
dose-dependent response (sGFP::ATZ [2]): cefmetazole sodium^d

5′-3′2,3-dicarboxy-2,3-dimethyl-1,4-epoxycyclohexane [cantharidic acid]
Overall rank-order (sGFP::ATZ [1]; [5]): 22
Rank-score (sGFP::ATZ [1]; [4]): 79.0
concentration at which an anti-protein aggregate effect was achieved (sGFP::ATZ [2]): 100 µM
degradation of aggregated ATZ protein (sGFP::ATZ [2]): able to promote degradation of aggregated ATZ protein
dose-dependent response (sGFP::ATZ [2]): cantharidic acid^c

ivermectin
Overall rank-order (sGFP::ATZ [1]; [5]): 1
Rank-score (sGFP::ATZ [1]; [4]): 2.0
dose-dependent response (sGFP::ATZ [2]): ivermectin^d

NC(=Nc1ccccc1)NC(=O)c1nc(Cl)c(N)nc1N [phenamil methanesulfonate]
Overall rank-order (sGFP::ATZ [1]; [5]): 13
Rank-score (sGFP::ATZ [1]; [4]): 57.5
dose-dependent response (sGFP::ATZ [2]): phenamil methanesulfonate^d

C/C=C(/C)C(=O)O[C@H]1C(C)=C2[C@H]([C@@H]1OC(=O)CCCCCCC)[C@@](C)(OC(C)=O)C[C@H](OC(=O)CCC)[C@@]1(O)[C@H]2OC(=O)[C@@]1(C)O [thapsigargin]
Overall rank-order (sGFP::ATZ [1]; [3]): 2
Rank-score (sGFP::ATZ [1]; [4]): 1256.0
dose-dependent response (sGFP::ATZ [2]): thapsigargin^c

CCN1CCc2nc(N)oc2CC1.Cl.Cl [B-HT 933 dihydrochloride]
Overall rank-order (sGFP::ATZ [1]; [5]): 32
Rank-score (sGFP::ATZ [1]; [4]): 105.5
dose-dependent response (sGFP::ATZ [2]): B-HT 933 dihydrochloride^d

CC(=O)O[C@H]1C(=O)[C@@]2(C)[C@H]([C@H](OC(=O)c3ccccc3)[C@]3(O)C[C@H](OC(=O)[C@H](O)[C@@H](NC(=O)c4ccccc4)c4ccccc4)C(C)=C1C3(C)C)[C@]1(OC(C)=O)CO[C@@H]1C[C@@H]2O [taxol, 5β,20-Epoxy-1,2α,4,7β, 10β,13α-hexahydroxytax-11-en-9-one 4,10-diacetate 2-benzoate 13-ester with (2R,3S)—N-benzoyl-3-phenylisoserine]
Overall rank-order (sGFP::ATZ [1]): 19
Rank-score (sGFP::ATZ [1]; 50 µM): 73.5
degradation of aggregated ATZ protein (sGFP::ATZ [2]): able to promote degradation of aggregated ATZ protein
dose-dependent response (sGFP::ATZ [2]): taxol^c

Cc1cnc(C(=O)NCCc2ccc(S(=O)(=O)NC(=O)NC3CCCCC3)cc2)cn1 [glipizide]
Overall rank-order (sGFP::ATZ [1]; [3]): 12
Rank-score (sGFP::ATZ [1]; [4]): 1234.0
dose-dependent response (sGFP::ATZ [2]): glipizide^d

CC/C(=C(\c1ccccc1)c1ccc(OCCN(C)C)cc1)c1ccccc1 [tamoxifen citrate, (Z)-2-[4-(1,2-diphenylbut-1-enyl)phenoxy]-N,N-dimethylethylamine]
Overall rank-order (sGFP::ATZ [1]; [5]): 24
Rank-score (sGFP::ATZ [1]; [4]): 83.5
degradation of aggregated ATZ protein (sGFP::ATZ [2]): able to promote degradation of aggregated ATZ protein
effect on sGFP::ATZ accumulation (sGFP::ATZ [2]): dose-dependant decrease in sGFP::ATZ accumulation
dose-dependent response (sGFP::ATZ [2]): tamoxifen citrate^c

CN(C)CCC=C1c2ccccc2COc2ccccc21 [doxepin hydrochloride]
Overall rank-order (sGFP::ATZ [1]): 15
Rank-score (sGFP::ATZ [1]; 50 µM): 61.0
dose-dependent response (sGFP::ATZ [2]): doxepin hydrochloride^d

CC(C)(C)c1cc(/C=C(\C#N)C(N)=S)cc(C(C)(C)C)c1O [tyrphostin AG 879]
Overall rank-order (sGFP::ATZ [1]; [3]): 10
Rank-score (sGFP::ATZ [1]; [4]): 1236.5
effect on sGFP::ATZ accumulation (sGFP::ATZ [2]): increased
effect on sGFP::ATZ accumulation (sGFP::ATZ [2]; listed as tyrphostatin): increase in sGFP::ATZ accumulation
dose-dependent response (sGFP::ATZ [2]): tyrphostin AG 879^c

L(−)-norepinephrine bitartrate
Overall rank-order (sGFP::ATZ [1]; [5]): 7
Rank-score (sGFP::ATZ [1]; [4]): 36.5
dose-dependent response (sGFP::ATZ [2]): L(−)-norepinephrine bitartrate^d
